In US11001596B2, “7-phenylethylamino-4H-pyrimido[4,5-d][1,3]oxazin-2-one compounds as mutant IDH1 and IDH2 inhibitors” (Eli Lilly and Company, priority 2016, dated 2021):

Tests used:
Wild-type IDH2 = Wild-type IDH2 (Homo sapiens (Human), UniProt P48735); test: Biochemical assay for wild-type IDH2 enzyme (isocitrate to αKG, LC-MS); settings: pH 7.5
Protocol: (§1) IDH1 and IDH2 enzymes catalyze the conversion of isocitrate to αKG. […] Following derivatization at room temperature for one hour, samples are extracted with 600 μL of EtOAc.

IDH2-R172K = IDH2-R172K (Homo sapiens (Human), UniProt P48735, R172K); test: Biochemical assay for IDH2 R172K mutant enzyme (conversion of αKG to 2HG, RapidFire MS); settings: IDH2/R172K IC50, 1.2 nM enzyme, 90 minutes, pH 7.0
Sequence of IDH2-R172K (P48735 40-452 R172K): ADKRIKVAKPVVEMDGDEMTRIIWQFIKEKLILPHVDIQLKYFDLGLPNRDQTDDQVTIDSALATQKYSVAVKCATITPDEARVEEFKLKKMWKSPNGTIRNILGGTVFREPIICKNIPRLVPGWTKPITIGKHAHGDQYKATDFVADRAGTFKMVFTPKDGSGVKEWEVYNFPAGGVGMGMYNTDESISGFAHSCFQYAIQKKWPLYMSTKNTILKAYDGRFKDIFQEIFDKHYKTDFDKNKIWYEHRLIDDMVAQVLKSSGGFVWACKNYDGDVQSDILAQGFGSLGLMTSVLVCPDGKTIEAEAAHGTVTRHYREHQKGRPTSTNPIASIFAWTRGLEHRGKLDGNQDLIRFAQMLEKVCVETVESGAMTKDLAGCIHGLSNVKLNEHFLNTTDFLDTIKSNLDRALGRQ

IDH2-R140Q = IDH2-R140Q (Homo sapiens (Human), UniProt P48735, R140Q); test: Biochemical assay for IDH2 R140Q mutant enzyme (conversion of αKG to 2HG, RapidFire MS); settings: IDH2/R140Q IC50, 1.2 nM enzyme, 90 minutes, pH 7.0
Sequence of IDH2-R140Q (P48735 40-452 R140Q): as the sequence (P48735 40-452 R172K) above, with R101Q, K133R counted along it

Wild-type IDH1 = Wild-type IDH1 (Homo sapiens (Human), UniProt O75874); test: Biochemical assay for wild-type IDH1 enzyme (isocitrate to αKG, LC-MS); settings: pH 7.5
Sequence of Wild-type IDH1 (O75874 whole entry): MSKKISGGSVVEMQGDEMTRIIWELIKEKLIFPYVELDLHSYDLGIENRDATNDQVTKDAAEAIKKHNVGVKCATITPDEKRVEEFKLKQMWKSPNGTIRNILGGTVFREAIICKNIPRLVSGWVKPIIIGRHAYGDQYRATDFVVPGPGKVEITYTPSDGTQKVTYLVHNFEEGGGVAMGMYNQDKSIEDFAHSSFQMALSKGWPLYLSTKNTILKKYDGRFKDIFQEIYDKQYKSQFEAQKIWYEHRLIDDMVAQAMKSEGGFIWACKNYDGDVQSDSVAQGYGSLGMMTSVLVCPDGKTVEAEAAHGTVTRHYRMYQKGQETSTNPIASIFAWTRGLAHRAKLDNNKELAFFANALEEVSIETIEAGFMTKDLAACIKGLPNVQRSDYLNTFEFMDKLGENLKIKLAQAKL
Protocol: as §1

Sequence of Wild-type IDH2 (P48735 40-452): as the sequence (P48735 40-452 R172K) above, with K133R counted along it

Compound	IC50 (Wild-type IDH2)	IC50 (IDH2-R172K)	IC50 (IDH2-R140Q)	IC50 (Wild-type IDH1)
C=CC(=O)N1CCN(C(CC2CC2)c2ccc([C@H](C)Nc3ncc4c(n3)N(C)C(=O)OC4)cc2)CC1 (single isomer, unassigned) [Example 3]	3370 nM	15.6 nM	64.8 nM	425 nM
C=CC(=O)N1CCN(C(CC(C)C)c2ccc([C@H](C)Nc3ncc4c(n3)N(CC)C(=O)OC4)cc2)CC1 (stereo partly drawn) [Example 6, 1-Ethyl-7-[[(1S)-1-[4-[3-methyl-1-(4-prop-2-enoylpiperazin-1-yl)butyl]phenyl]ethyl]amino]-4H-pyrimido[4,5-d][1,3]oxazin-2-one]	493 nM	–	–	54.9 nM
C=CC(=O)N1CCN(C(CCOC)c2ccc([C@H](C)Nc3ncc4c(n3)N(CC)C(=O)OC4)cc2)CC1 (single isomer, unassigned) [Example 14]	7400 nM	162 nM	746 nM	392 nM
C=CC(=O)N1CCN(C(CC(C)C)c2ccc([C@H](C)Nc3ncc4c(n3)N(CC)C(=O)OC4)cc2)CC1 (single isomer, unassigned) [Example 7]	1530 nM	22.4 nM	74.3 nM	233 nM
C=CC(=O)N1CCN([C@H](CC2CC2)c2ccc([C@H](C)Nc3ncc4c(n3)N(CC)C(=O)OC4)cc2)CC1 [Example 1, 7-[[(1S)-1-[4-[(1R)-2-Cyclopropyl-1-(4-prop-2-enoylpiperazin-1-yl)ethyl]phenyl]ethyl]amino]-1-ethyl-4H-pyrimido[4,5-d][1,3]oxazin-2-one]	801 ± 745 nM	32.8 nM	113 nM	85.4 ± 107 nM
C=CC(=O)N1CCN(C(CCOC)c2ccc([C@H](C)Nc3ncc4c(n3)N(CC)C(=O)OC4)cc2)CC1 (single isomer, unassigned) [Example 13]	7030 nM	39 nM	239 nM	456 nM
C=CC(=O)N1CCN([C@@H](CC2CC2)c2ccc([C@H](C)Nc3ncc4c(n3)N(CC)C(=O)OC4)cc2)CC1 [Example 2, 7-[[(1S)-1-[4-[(1S)-2-cyclopropyl-1-(4-prop-2-enoylpiperazin-1-yl)ethyl]phenyl]ethyl]amino]-1-ethyl-4H-pyrimido[4,5-d][1,3]oxazin-2-one]	884 ± 748 nM	11.5 nM	36.9 nM	105 ± 113 nM
C=CC(=O)N1CCN(C(CC2CC2)c2ccc([C@H](C)Nc3ncc4c(n3)N(C)C(=O)OC4)cc2)CC1 (single isomer, unassigned) [Example 4]	3700 nM	28 nM	81.1 nM	302 nM

Now from value to compound:

IC50 (Wild-type IDH2)	IC50 (IDH2-R172K)	IC50 (IDH2-R140Q)	IC50 (Wild-type IDH1)	Compound
2080 nM	20 nM	54.3 nM	345 nM	C=CC(=O)N1CCN(C(CC)c2ccc([C@H](C)Nc3ncc4c(n3)N(CC)C(=O)OC4)cc2)CC1 (single isomer, unassigned) [Example 11]
3220 nM	26.3 nM	134 nM	277 nM	C=CC(=O)N1CCN(C(CC)c2ccc([C@H](C)Nc3ncc4c(n3)N(CC)C(=O)OC4)cc2)CC1 (single isomer, unassigned) [Example 12]
1620 nM	17 nM	46 nM	237 nM	C=CC(=O)N1CCN(C(CC(C)C)c2ccc([C@H](C)Nc3ncc4c(n3)N(CC)C(=O)OC4)cc2)CC1 (single isomer, unassigned) [Example 8]
